# Data: patent US20150352099A1, “Compositions and Methods of Reducing Sedation” (Mentinova Inc., priority 2014, published 2015)
# Structures can show the parent of a compound that is named as a salt.
# Key:
# [1] = system: Parkinsonian non-human primates; experiment: Drug effects on the nervous system (DENS) sedation scores, nalbuphine monotherapy; type: in vivo; conditions: for Sedation Items: Appetite / Sedation Items: Attentiveness / Sedation Items: Eye Movement / Sedation Items: Mouth (excessive salivation, drooling) / Sedation Items: Reactivity: DENS score, total of all intervals; for Sedation Items: Total: total sedation score
# Procedure: (§1) Parkinsonian non-human primates (n=6) were injected (s.c.) with Nalbuphine HCl (NB, dissolved in saline) and evaluated for changes in parkinsonian motor disability (MDS) and drug effects on the nervous system (DENS). Evaluations were performed immediately before injection (baseline), at 30 minutes post-injection and again every 20 minutes thereafter for 110 minutes or until effects were no longer observable. Five NB doses (0.0, 0.016, 0.05, 0.16, 0.50 mg/kg) were tested in each animal with each dose tested 3 times in all animals.
# Itemized Sedation scores (see Uthayathas et al., “Assessment of adverse effects of neurotropic drugs in monkeys with the ‘drug effects on the nervous system’ (DENS) scale,” J Neurosci Methods. 2013 Apr. 30; 215(1):97-102, for complete description of the DENS scale, incorporated by reference herein in its entirety). The items in this scale are given in the table with the exception of “Involuntary Movements”, “Bowel” and “Bladder”, which were omitted because they were not scored with this scale. Scores are total values from adding all intervals. Higher scores reflect increased sedative effects. […] Values represent the means±SEM of all animals (n=6).
# [2] = system: Parkinsonian non-human primates; experiment: Parkinsonian motor disability scores (MDS) versus sedation scores; type: in vivo; conditions: nalbuphine 0.016 mg/kg-0.50 mg/kg in primates; the FIGURE
# From the text: The foregoing summary, as well as the following detailed description of the invention, will be better understood when read in conjunction with the appended drawings. The FIGURE is a graph showing total sedation scores as a function of motor disability in non-human primates treated with nalbuphine HCl monotherapy.
# In other words, severity of dopamine deficiency is a predictor of the sedation severity for the same dose of nalbuphine given to different animals.
# as §1, with “Five NB doses (0.0, 0.016, 0.05, 0.16, 0.50 mg/kg) were tested in each animal with each dose tested 3 times in all animals.” left out
# Animals (n=6) were injected (s.c.) with NB immediately prior to receiving L-dopa (LD; levodopa methyl ester plus 25% benserazide, dissolved in saline and given s.c.). The LD dose was determined individually for each animal based on ‘on’ response and consistency of dyskinesia. Animals were evaluated for changes in parkinsonian motor disability scores (MDS), drug effects on the nervous system (Sedation) and severity of dyskinesias. […]
# [3] = Pharmacokinetic parameters (Cmax, AUC, Tmax) of opioid given alone or with dopaminergic agent; conditions: sc, 0.25 mg/kg; for AUC / Cmax: plasma; for Tmax: serum
# [4] = NB 0.016 mg/kg s.c., mean ± SEM n=6
# [5] = NB 0.05 mg/kg s.c., mean ± SEM n=6
# [6] = NB 0.16 mg/kg s.c., mean ± SEM n=6
# [7] = NB 0.5 mg/kg s.c., mean ± SEM n=6
structure (smiles),measurement,setting,value
"Oc1ccc2c3c1O[C@H]1[C@@H](O)CC[C@@]4(O)[C@@H](C2)N(CC2CCC2)CC[C@]314 [NB, Nalbuphine HCl]",Sedation Items: Appetite,[1]; [4],0.13 ± 0.13
same,Sedation Items: Attentiveness,[1]; [4],2.00 ± 0.73
same,Sedation Items: Eye Movement,[1]; [4],0.17 ± 0.17
same,"Sedation Items: Mouth (excessive salivation, drooling)",[1]; [4],0.13 ± 0.09
same,Sedation Items: Reactivity,[1]; [4],0.67 ± 0.36
same,Sedation Items: Total,[1]; NB 0.016 mg/kg s.c.,3.08
same,Sedation Items: Appetite,[1]; [5],0.56 ± 0.26
same,Sedation Items: Attentiveness,[1]; [5],2.75 ± 1.07
same,Sedation Items: Eye Movement,[1]; [5],0.54 ± 0.25
same,"Sedation Items: Mouth (excessive salivation, drooling)",[1]; [5],0.17 ± 0.11
same,Sedation Items: Reactivity,[1]; [5],1.58 ± 0.85
same,Sedation Items: Total,[1]; NB 0.05 mg/kg s.c.,5.61
same,"Sedation Items: Mouth (excessive salivation, drooling)","[1]; NB 0.16 mg/kg s.c., mean n=6",0.00
same,Sedation Items: Appetite,[1]; [6],1.48 ± 1.03
same,Sedation Items: Attentiveness,[1]; [6],3.17 ± 1.51
same,Sedation Items: Eye Movement,[1]; [6],2.44 ± 0.94
same,Sedation Items: Reactivity,[1]; [6],4.1 ± 1.60
same,Sedation Items: Total,[1]; NB 0.16 mg/kg s.c.,11.19
same,Sedation Items: Appetite,[1]; [7],4.79 ± 0.78
same,Sedation Items: Attentiveness,[1]; [7],5.17 ± 1.34
same,Sedation Items: Eye Movement,[1]; [7],3.29 ± 1.10
same,"Sedation Items: Mouth (excessive salivation, drooling)",[1]; [7],1.17 ± 1.07
same,Sedation Items: Reactivity,[1]; [7],6.65 ± 2.15
same,Sedation Items: Total,[1]; NB 0.5 mg/kg s.c.,21.06
same,parkinsonian motor disability scores (MDS) versus sedation scores,[2],correlate with sedation scores
same,AUC,"[3]; average AUC of opioid, nalbuphine 0.25 mg/kg subcutaneously with L-DOPA 25 mg/kg subcutaneously",~89 ng·h/mL
same,AUC,"[3]; average AUC, nalbuphine 0.25 mg/kg subcutaneously, alone",~96 ng·h/mL
same,Cmax,"[3]; average Cmax of opioid, nalbuphine 0.25 mg/kg subcutaneously with L-DOPA 25 mg/kg subcutaneously",~55 ng/mL
same,Cmax,"[3]; average Cmax, nalbuphine 0.25 mg/kg subcutaneously, alone",~49 ng/mL
same,Tmax,"[3]; average Tmax of opioid, nalbuphine 0.25 mg/kg subcutaneously with L-DOPA 25 mg/kg subcutaneously",~32 min
same,Tmax,"[3]; average Tmax, nalbuphine 0.25 mg/kg subcutaneously, alone",~37 min
